Like-named read-outs stand apart in the source and are kept apart here.
Experiments:
HBV DNA [1] = experiment: Serum HBV DNA in pHBV1.3 hydrodynamic injection mouse model of HBV (Example 12); type: in vivo, NOD.CB17-Prkdc scid/J mice; HBV genotype D, serotype ayw; conditions: once daily oral from Day 0: RNA destabilizer 10 mg/kg, encapsidation inhibitor 100 mg/kg, nucleos(t)ide analog 0.4 mg/kg, group mean ± SEM, n=7 or 8, from negative control
Protocol: (§1) On Day −7, 10 micrograms of the plasmid pHBV1.3 (constructed based on details provided in Guidotti, L., et al., Journal of Virology, 1995, 69(10): 6158-6169) was administered to NOD.CB 17-Prkdc^scid/J mice via hydrodynamic injection (HDI; rapid 1.6 mL injection into the tail vein). […] As readouts of the anti-HBV effect of the treatments, serum HBV DNA and serum HBsAg were assessed. Serum HBV DNA concentration in mice was measured using a quantitative PCR assay following total DNA extraction using previously published primers and probe sequences (Tanaka, Y., et al., Journal of Medical Virology, 2004, 72: 223-229). Serum HBsAg concentration in mice was measured using a commercially available ELISA kit (HBsAg EIA 3.0 480 Test Kit, Bio-Rad).
(§2) Animals were treated with RNA destabilizer as follows: Starting on Day 0, a 10 mg/kg dosage of RNA destabilizer was administered orally to animals on a once-daily frequency for a total of seven doses across the duration of the study. Animals were treated with encapsidation inhibitor as follows: Starting on Day 0, a 100 mg/kg dosage of encapsidation inhibitor was administered orally to animals on a once-daily frequency for a total of seven doses across the duration of the study. Animals were treated with nucleos(t)ide analog as follows: Starting on Day 0, a 0.4 mg/kg dosage of nucleos(t)ide analog was administered orally to animals on a once-daily frequency for a total of seven doses across the duration of the study. The RNA destabilizer, the encapsidation inhibitor, and nucleos(t)ide analog were each dissolved in the same co-solvent formulation for administration and negative control animals were administered the co-solvent formulation alone. To calculate treatment-specific effects, the treated groups are compared against negative control (vehicle treated) animals.
(§3) The effect of these treatments was determined by collecting blood on Days −1 (prior to study's treatment phase), 4, and 7 and analyzing it for serum HBV DNA and HBsAg content.

HBsAg [2] = experiment: Serum HBsAg in pHBV1.3 hydrodynamic injection mouse model of HBV (Example 12); type: in vivo, NOD.CB17-Prkdc scid/J mice; HBV genotype D, serotype ayw; conditions: for Serum HBsAg log reduction: once daily oral from Day 0: RNA destabilizer 10 mg/kg, encapsidation inhibitor 100 mg/kg, nucleos(t)ide analog 0.4 mg/kg, group mean ± SEM, n=7 or 8, from negative control
Protocol: as §1, §2, §3

HBsAg [3] = experiment: Liver HBsAg by ELISA in AAV-HBV mouse model (Example 18); type: in vivo, C57BL/6 mice; HBV serotype Ayw, genotype D; conditions: Study Day 42; siRNA 3 mg/kg s.c. Days 0 and 28, encapsidation inhibitor 100 mg/kg and/or TDF 1 mg/kg oral daily Days 0-41; group mean ± SEM, n=6
Protocol: (§4) Prior to treatment start, 1×10^11 viral genomes of an adeno-associated virus (AAV) vector carrying a 1.3-fold overlength copy of an HBV genome (serotype Ayw, genotype D) was administered to C57BL/6 mice via intravenous injection. Introduction of this viral vector results in the expression of HBV DNA and HBV surface antigen (HBsAg) amongst other HBV products. Serum HBV DNA levels in mice was measured using a quantitative polymerase chain reaction (QPCR) assay, HBsAg in serum and liver of mice was measured using an enzyme-linked immunosorbent assay (ELISA), and anti-HBsAg antibodies were measured using ELISA.
(§5) Treatment effects on serum HBV DNA were determined by collecting a small amount of blood on Days 0 (pre-treatment) and 14, as well as from terminal blood collections at Day 42. Treatment effects on HBsAg in serum and liver were determined from terminal sample collections at Day 42.
(§6) Any individual animal samples measured to fall below assay lower limit of quantitation (LLOQ) were reported as the LLOQ value.

HBV DNA [4] = type: in vivo, C57BL/6 mice; HBV serotype Ayw, genotype D; conditions: group mean ± SEM, n=6
Protocol: as §4, §5, §6

HBV genome = experiment: IC 50 of HBV siRNA duplexes (Table A); set-up: species or system Hepatitis B virus; conditions: siRNA duplex

Row | Compound | Serum HBV DNA log reduction (HBV DNA [1]; Day 4) | Serum HBV DNA log reduction (HBV DNA [1]; Day 7) | Serum HBsAg log reduction (HBsAg [2]; Day 4) | Serum HBsAg log reduction (HBsAg [2]; Day 7) | effect on viral protein production (serum HBsAg biomarker) (HBsAg [2]; mouse, once-daily oral, seven doses) | Liver HBsAg (HBsAg [3]) | Serum HBV DNA (HBV DNA [4]; Day 0 (pre-treatment)) | Serum HBV DNA (HBV DNA [4]; Day 14, siRNA 3 mg/kg s.c. Days 0 and 28, encapsidation inhibitor 100 mg/kg and/or TDF 1 mg/kg oral daily) | Serum HBV DNA (HBV DNA [4]; Day 42, siRNA 3 mg/kg s.c. Days 0 and 28, encapsidation inhibitor 100 mg/kg and/or TDF 1 mg/kg oral daily Days 0-41) | IC50 (HBV genome)
1 | COCCCOc1cc2c(nc1OC)-c1cc(=O)c(C(=O)O)cn1[C@H](C(C)C)C2 [RNA destabilizer] | 0.48 ± 0.11 log | 0.48 ± 0.10 log | 0.75 ± 0.03 log | 0.86 ± 0.04 log | reductive effect on viral protein production |  |  |  |  | 
2 | Cn1cnc(COC(=O)N[C@H]2CCc3c(C(=O)Nc4ccc(F)c(Cl)c4)ccc(F)c32)n1 [Encapsidation Inhibitor] | 0.94 ± 0.07 log | 0.86 ± 0.12 log | −0.12 ± 0.03 log | 0.07 ± 0.04 log |  | 2.03 ± 0.03 log10 IU/mg liver protein | 4.45 ± 0.13 log10 copies/microliter | 3.89 ± 0.07 log10 copies/microliter | 4.49 ± 0.07 log10 copies/microliter | 
3 | 4m: "double stranded siRNA molecules selected from the group consisting of 1m, 2m, 3m ... 15m" (sense GCUCAGUUUACUAGUGCCAUU; antisense UUCGAGUCAAAUGAUCACGGU; chemistry not fully specified; one strand is listed 3' to 5') [Compound 4m] |  |  |  |  |  |  |  |  |  | 0.31 nM
4 | 11m: "double stranded siRNA molecules selected from the group consisting of 1m, 2m, 3m ... 15m" (sense GCCGAUCCAUACUGCGGAAUU; antisense UUCGGCUAGGUAUGACGCCUU; chemistry not fully specified; one strand is listed 3' to 5') [Compound 11m] |  |  |  |  |  |  |  |  |  | 0.31 nM

Reference: patent publication US20220168430A1, “THERAPEUTIC METHODS FOR TREATING HEPATITIS B” (priority 2019, published 2022)
